Values quoted from earlier work as cited in patent publication US20160081975A1, “SOFT GEL COMPOSITIONS AND PRE-GEL CONCENTRATES” (VIRUN, INC., priority 2014, published 2016).

Details: reported value

Row | Substance | HLB value
1 | sucrose dipalmitate | 7.4
2 | sucrose distearate | 3
3 | sucrose monopalmitate | > 10
